Measurements reported in patent US12246008B2, “4-amino or 4-alkoxy-substituted aryl sulfonamide compounds with selective activity in voltage-gated sodium channels” (Merck Sharp & Dohme LLC, priority 2018, dated 2025).
Read-outs that look alike come from different tables or passages of the source.

What was measured:
Assay in all cases: Qube automated patch-clamp assay, inhibition of sodium current
Assay type in all cases: cell-based
[1] = molecular target: T1, human Nav1.6 channels stably expressed in HEK 293 cells (Homo sapiens, UniProt Q9UQD0); details: holding potential −65 mV; max concentration tested 33750 nM
T1 construct: expressed in transfected cells; host or cells: HEK 293
Protocol: (§1) Qube™ Experimental Procedure:
(§2) Compounds were tested on human Nav1.7 and Nav1.6 channels stably expressed in HEK 293 cells. […] Cells were sealed on a planar substrate using the multihole technology. Cells expressing human Nav1.7 channels were held at −75 mV or −80 mV. Cells expressing human Nav1.6 channels were held at −65 mV. A train of 6 consecutive test pulses to −10 mV, preceded by 8 s prepulses to −115 mV, was applied at a frequency of 0.1 Hz before and after compound addition. Cells in each Qchip well were incubated in compound for 5 minutes before measuring inhibition. Peak currents were measured in control conditions and after compound addition. The following recording solutions were used (mM). External Nav1.6: 150 NaCl, 2 CaCl2), 5 KCl, 1 Mg Cl2, 10 HEPES, 12 Dextrose; external Nav1.7: 40 NaCl, 120 NMDG, 1 KCl, 0.5 MgCl2, 5 HEPES, 2.7 CaCl2); internal: 120 CsF, 30 CsCl, 10 EGTA, 5 HEPES, 5 NaF, 2 MgCl2. Compounds were prepared as 10 mM stock solutions in DMSO. 10 point compound titrations were generated using the Echo acoustic liquid handling instrument and glass coated 384 well plates. The final DMSO concentration in the assay was 0.3%. For all electrophysiology experiments, offline analysis was used to determine percent inhibition as a function of drug concentration. IC50 values were determined by fitting to the Hill equation.
(§3) The various compounds in EXAMPLES 1 through 43 and TABLE 2 exemplified above were assayed for activity and selectivity using the foregoing Qube® technique. The results are reported in TABLE 3 in a format expressing the identification of the compound with reference EXAMPLE followed by the observed potency in nM for NaV1.7, NaV1.6 and NaV1.5. NA signifies not applicable and the max concentration tested is 33750 nM.

[2] = molecular target: T2, human Nav1.7 channels stably expressed in HEK 293 cells (Homo sapiens, UniProt Q15858); details: max concentration tested 33750 nM, read-out: NaV1.7 (nM)
T2 construct: expressed in transfected cells; host or cells: HEK 293
Protocol: as §1, §2, §3

NaV1.5 = NaV1.5 (Homo sapiens, UniProt Q14524); details: holding potential −80 mV; max concentration tested 33750 nM
Protocol: as §2, §3

[3] = holding potential −75 mV, −75 mV

T1 sequence (Q9UQD0 whole entry): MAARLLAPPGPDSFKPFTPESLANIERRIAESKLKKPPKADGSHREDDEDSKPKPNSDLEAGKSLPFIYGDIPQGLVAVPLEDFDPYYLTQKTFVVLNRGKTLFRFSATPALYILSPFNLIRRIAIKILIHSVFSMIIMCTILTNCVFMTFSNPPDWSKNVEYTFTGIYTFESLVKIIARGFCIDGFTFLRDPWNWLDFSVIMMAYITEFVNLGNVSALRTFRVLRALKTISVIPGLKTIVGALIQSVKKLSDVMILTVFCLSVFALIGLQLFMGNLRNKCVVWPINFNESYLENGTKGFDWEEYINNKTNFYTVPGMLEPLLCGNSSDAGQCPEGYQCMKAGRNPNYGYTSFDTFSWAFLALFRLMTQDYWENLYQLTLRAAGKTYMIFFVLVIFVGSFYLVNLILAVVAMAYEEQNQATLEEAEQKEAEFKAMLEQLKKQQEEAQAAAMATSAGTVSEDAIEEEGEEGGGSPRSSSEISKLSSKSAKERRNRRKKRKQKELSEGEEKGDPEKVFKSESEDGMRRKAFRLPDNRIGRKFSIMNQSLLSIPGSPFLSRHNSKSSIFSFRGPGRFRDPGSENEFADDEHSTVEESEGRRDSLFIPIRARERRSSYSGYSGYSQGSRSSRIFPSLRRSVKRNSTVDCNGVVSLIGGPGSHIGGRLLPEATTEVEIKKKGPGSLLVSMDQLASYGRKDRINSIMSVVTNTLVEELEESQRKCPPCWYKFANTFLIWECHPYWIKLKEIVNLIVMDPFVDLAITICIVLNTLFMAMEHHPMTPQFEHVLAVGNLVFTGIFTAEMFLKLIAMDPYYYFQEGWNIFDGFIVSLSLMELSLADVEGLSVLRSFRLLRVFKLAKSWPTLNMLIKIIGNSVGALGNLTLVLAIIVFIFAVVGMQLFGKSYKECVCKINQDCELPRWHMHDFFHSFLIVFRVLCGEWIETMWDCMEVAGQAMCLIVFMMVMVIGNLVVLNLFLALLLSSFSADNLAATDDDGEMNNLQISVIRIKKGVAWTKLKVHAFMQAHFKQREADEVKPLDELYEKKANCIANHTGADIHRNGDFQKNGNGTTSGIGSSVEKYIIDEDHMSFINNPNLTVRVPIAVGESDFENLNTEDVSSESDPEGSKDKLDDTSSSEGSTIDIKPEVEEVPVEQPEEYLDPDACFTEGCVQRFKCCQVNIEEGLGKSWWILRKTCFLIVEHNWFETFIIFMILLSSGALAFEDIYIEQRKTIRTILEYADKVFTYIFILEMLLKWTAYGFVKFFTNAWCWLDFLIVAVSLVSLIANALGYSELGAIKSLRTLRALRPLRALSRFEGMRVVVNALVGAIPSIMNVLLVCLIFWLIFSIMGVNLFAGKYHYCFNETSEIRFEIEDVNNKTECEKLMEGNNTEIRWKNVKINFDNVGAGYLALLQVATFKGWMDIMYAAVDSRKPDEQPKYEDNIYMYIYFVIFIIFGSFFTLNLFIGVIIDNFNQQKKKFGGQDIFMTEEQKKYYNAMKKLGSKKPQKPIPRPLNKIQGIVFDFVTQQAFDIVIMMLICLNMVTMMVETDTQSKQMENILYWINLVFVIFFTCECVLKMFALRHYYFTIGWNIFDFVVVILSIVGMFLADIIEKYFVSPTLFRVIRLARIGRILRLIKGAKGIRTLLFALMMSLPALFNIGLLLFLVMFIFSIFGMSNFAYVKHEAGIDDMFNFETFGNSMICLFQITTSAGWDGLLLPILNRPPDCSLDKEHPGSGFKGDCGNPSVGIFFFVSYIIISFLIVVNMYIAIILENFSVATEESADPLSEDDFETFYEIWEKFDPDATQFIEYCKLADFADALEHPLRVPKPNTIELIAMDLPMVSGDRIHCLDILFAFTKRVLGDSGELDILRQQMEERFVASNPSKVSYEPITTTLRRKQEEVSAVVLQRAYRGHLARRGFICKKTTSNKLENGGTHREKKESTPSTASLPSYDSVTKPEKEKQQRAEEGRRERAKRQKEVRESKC
NaV1.5, sequence (Q14524 whole entry): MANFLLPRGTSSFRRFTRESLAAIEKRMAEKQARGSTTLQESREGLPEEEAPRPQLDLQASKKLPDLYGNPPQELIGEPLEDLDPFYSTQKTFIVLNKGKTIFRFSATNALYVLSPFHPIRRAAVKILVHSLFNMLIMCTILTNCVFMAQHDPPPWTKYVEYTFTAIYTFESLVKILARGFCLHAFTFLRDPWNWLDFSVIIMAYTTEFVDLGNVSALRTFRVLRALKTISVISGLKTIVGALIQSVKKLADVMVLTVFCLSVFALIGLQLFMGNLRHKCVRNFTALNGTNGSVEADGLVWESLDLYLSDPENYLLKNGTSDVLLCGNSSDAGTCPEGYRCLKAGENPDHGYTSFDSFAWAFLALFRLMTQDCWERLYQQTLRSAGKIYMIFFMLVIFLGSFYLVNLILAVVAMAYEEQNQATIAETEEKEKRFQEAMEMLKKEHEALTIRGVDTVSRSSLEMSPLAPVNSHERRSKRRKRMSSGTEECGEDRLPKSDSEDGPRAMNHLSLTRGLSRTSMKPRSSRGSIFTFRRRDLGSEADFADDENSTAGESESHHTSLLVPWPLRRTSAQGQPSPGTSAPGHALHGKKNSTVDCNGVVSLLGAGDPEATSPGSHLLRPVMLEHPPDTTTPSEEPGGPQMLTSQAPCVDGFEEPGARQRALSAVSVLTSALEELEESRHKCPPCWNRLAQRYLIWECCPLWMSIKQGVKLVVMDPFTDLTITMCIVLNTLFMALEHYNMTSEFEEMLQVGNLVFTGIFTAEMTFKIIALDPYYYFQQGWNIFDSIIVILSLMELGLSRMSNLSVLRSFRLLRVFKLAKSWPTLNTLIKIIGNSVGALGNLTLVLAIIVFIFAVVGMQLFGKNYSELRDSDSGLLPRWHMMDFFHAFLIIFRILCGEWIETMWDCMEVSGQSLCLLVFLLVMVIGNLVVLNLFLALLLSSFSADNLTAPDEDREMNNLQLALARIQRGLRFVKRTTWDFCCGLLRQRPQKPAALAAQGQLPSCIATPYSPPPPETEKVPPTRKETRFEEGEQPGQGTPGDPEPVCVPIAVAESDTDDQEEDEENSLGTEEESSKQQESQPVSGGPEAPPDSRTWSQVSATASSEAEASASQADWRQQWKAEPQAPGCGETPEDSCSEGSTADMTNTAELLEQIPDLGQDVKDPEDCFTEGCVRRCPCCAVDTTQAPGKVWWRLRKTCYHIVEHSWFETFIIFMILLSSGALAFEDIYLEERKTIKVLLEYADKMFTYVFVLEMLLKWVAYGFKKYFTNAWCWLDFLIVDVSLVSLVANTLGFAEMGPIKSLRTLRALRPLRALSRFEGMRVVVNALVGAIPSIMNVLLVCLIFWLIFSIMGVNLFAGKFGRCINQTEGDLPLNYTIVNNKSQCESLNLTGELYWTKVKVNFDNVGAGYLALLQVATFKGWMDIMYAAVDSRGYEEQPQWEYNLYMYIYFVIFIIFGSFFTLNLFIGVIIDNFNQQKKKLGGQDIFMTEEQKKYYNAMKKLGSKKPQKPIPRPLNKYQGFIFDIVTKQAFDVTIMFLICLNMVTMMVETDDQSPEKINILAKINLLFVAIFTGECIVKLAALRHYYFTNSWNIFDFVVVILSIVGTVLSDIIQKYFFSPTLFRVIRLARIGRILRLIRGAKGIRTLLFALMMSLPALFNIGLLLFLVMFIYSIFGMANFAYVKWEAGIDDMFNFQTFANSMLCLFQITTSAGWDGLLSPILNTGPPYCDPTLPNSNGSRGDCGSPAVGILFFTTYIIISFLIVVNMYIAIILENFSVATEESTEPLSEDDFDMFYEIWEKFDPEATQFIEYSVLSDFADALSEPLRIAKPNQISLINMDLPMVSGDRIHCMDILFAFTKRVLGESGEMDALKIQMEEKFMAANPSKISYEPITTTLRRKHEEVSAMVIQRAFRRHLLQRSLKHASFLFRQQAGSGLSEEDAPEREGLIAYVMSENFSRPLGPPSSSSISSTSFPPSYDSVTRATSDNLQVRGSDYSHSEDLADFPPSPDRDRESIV

Compound	IC50 [1] [nM]	IC50 [2, 3] [nM]	IC50 ([2]; holding potential −80 mV, −80 mV) [nM]	IC50 (NaV1.5) [nM]
Cc1cc(NC[C@H](CC(C)(C)CCN)[C@@H](C)N)c(C#N)cc1S(=O)(=O)Nc1ncns1 [Example 68]	10100	37		> 33800
COc1cc(S(=O)(=O)Nc2ncns2)c(F)cc1NCC(CC1(CN)CCC1)[C@@H](C)N (stereo partly drawn) [Example 73]	> 33800	23		> 33800
C[C@@H](N)[C@H](CNc1cc(F)c(S(=O)(=O)Nc2ncns2)cc1CO)CC(N)C1CC1 (stereo partly drawn) [Example 80]	> 33800	71		> 33800

The next lines start with results.

IC50 [1] [nM]	IC50 [2, 3] [nM]	IC50 ([2]; holding potential −80 mV, −80 mV) [nM]	Compound	IC50 (NaV1.5) [nM]
> 33800	48		CCC(N)C[C@@H](CNc1cc(F)c(S(=O)(=O)Nc2ncns2)cc1OC)[C@@H](C)N (stereo partly drawn) [Example 83]	> 33800
> 33800		52	C[C@@H](N)[C@H](CNc1ccc(S(=O)(=O)Nc2ncns2)c(F)c1F)CC1(CCN)CCC1 [Example 100]	> 33800
> 33800	110		C[C@@H](N)C(CNc1cc(F)c(S(=O)(=O)Nc2ncns2)cc1Cl)CN1CCCC1 (stereo partly drawn) [Example 110]	> 33800
